Source: paper PMC5830615 (Scientific Reports, 2018)

Key:
[1] = test system: human GLP-1R; assay: FRET cAMP assay in HEK293-GLP-1R cells (stable human GLP-1R) virally transduced with H188; type: cell-based; settings: HEK293-GLP-1R cells transduced with H188
Method: (§1) HEK293-H188-C24 cells stably expressing H188 were plated at 80% confluence on 96-well clear-bottom assay plates (Costar 3904, Corning, NY) coated with rat tail collagen (Collaborative Biomedical Products, Bedford, MA). HEK293 cells stably expressing select GPCRs were transduced for 16 hours with H188 virus at a density of ca. 60,000 cells/well under conditions in which the multiplicity of infection (m.o.i.) was equivalent to 25 viral particles per cell. For all assays, the culture media was then removed and replaced by 200 μl/well of a standard extracellular saline (SES) solution supplemented with 11 mM glucose and 0.1% BSA[31],[34]–[36]. The composition of the SES was (in mM): 138 NaCl, 5.6 KCl, 2.6 CaCl2, 1.2 MgCl2, 11.1 glucose, and 10 Hepes (295 mOsmol, pH 7.4). Real-time kinetic assays of FRET were performed using a FlexStation 3 microplate reader equipped with monochromators (Molecular Devices, Sunnyvale, CA). Excitation light was delivered at 435/9 nm (455 nm cut-off), and emitted light was detected at 485/15 nm (CFP) or 535/15 nm (YFP)[31],[34]–[36]. The emission intensities were the averages of 12 excitation flashes for each time point per well.

[2] = test system: H188 (Epac1-based cAMP biosensor); assay: FRET response of biosensor H188 to cAMP analogs and Epac inhibitors in HEK293-H188-C24 cells; type: cell-based
Description: H188 contains the cAMP sensor Epac1 in which the full-length protein is truncated to remove the Disheveled, Egl-10, and Pleckstrin (DEP) membrane-targeting domain so that its expression is confined largely to the cytoplasm (Fig. 2a,b)[30]. T781A and F782A mutations introduced within the CDC25 homology domain disrupt guanine nucleotide exchange factor (GEF) activity so that binding of cAMP to H188 is not linked to downstream signaling events mediated by the Epac1 effector protein Rap1 GTPase (Fig. 2a)[30]. In H188 the Epac1 backbone is flanked by an mTurquoise2Δ FRET donor chromophore at the N-terminus, and tandem cp173 Venus-Venus FRET acceptor chromophores at the C-terminus (Fig. 2a). Binding of cAMP reduces FRET so that when exciting with 440 nm light, there is an increase of 485 nm (mTuquoise2Δ) and a decrease of 535 nm (cp173 Venus-Venus) emission fluorescence. This ΔFRET is measured as an increase of the 485/535 nm FRET ratio.
as §1, with “well. Test solutions dissolved in SES were placed in V-bottom 96-well plates (Greiner Bio-One, Monroe, NC), and an automated pipetting procedure was used to transfer 50 μl of each test solution to each well of the assay plate containing monolayers of these cells. The 485/535 emission ratio was calculated for each well and the mean +/− s.d. values for 12 wells were averaged. To facilitate comparisons amongst different experiments, these FRET ratio values were normalized using baseline subtraction so that a y-axis value of 1 corresponds to the initial baseline FRET ratio, whereas a value of 2 corresponds to a doubling of the FRET ratio. The time course of the ΔFRET ratio was plotted after exporting data to Origin 8.0 (OriginLab, Northampton, MA). Origin 8.0 was also used for generation of Hill plots describing dose-response relationships.” for “well.”

[3] = test system: soluble adenylyl cyclase (sAC); assay: FRET assay of soluble adenylyl cyclase activity in HEK293-sAC cells transduced with H188; type: cell-based; settings: LRE1 50 μM versus IBMX 50 μM
Method: These actions of Rp-8-Br-cAMPS-pAB were not reproduced by the negative control 4-acetoxybenzy alcohol (4-Abn-OH) that lacks the cAMP moiety (Fig. 3e1,e2)[36].
HEK293-H188-C24 cells stably expressing H188 were plated at 80% confluence on 96-well clear-bottom assay plates (Costar 3904, Corning, NY) coated with rat tail collagen (Collaborative Biomedical Products, Bedford, MA). HEK293 cells stably expressing select GPCRs were transduced for 16 hours with H188 virus at a density of ca. 60,000 cells/well under conditions in which the multiplicity of infection (m.o.i.) was equivalent to 25 viral particles per cell. For all assays, the culture media was then removed and replaced by 200 μl/well of a standard extracellular saline (SES) solution supplemented with 11 mM glucose and 0.1% BSA[31],[34]–[36]. The composition of the SES was (in mM): 138 NaCl, 5.6 KCl, 2.6 CaCl2, 1.2 MgCl2, 11.1 glucose, and 10 Hepes (295 mOsmol, pH 7.4). Real-time kinetic assays of FRET were performed using a FlexStation 3 microplate reader equipped with monochromators (Molecular Devices, Sunnyvale, CA). Excitation light was delivered at 435/9 nm (455 nm cut-off), and emitted light was detected at 485/15 nm (CFP) or 535/15 nm (YFP)[31],[34]–[36]. […] The 485/535 emission ratio was calculated for each well and the mean +/− s.d. values for 12 wells were averaged. […]

[4] = test system: HEK293-H188-C24 cells, empty vector (EV); assay: FRET cAMP assay in HEK293-H188-C24 cells transfected with negative control empty vector; type: cell-based, human; settings: GLP-1 and exendin-4 at 10 nM
Method: Transient transfections were performed using Lipofectamine and Plus Reagent (Thermo Fisher) using methodology described previously by our laboratory for HEK293 cells. […] Plasmid encoding human NPY2R (I.D. NPYR20TN00) in pcDNA3.1 was from the University of Missouri-Rolla cDNA Resource Center (Rolla, MO). Individual clones of HEK293 cells stably expressing select FRET reporters were obtained by G418 antibiotic resistance selection, as described previously. Adenovirus for transduction of HEK293 cells with H188 was generated by a commercial vendor (ViraQuest, North Liberty, IA) using the shuttle vector pVQAd CMV K-NpA and the H188 plasmid originally created by Klarenbeek and co-workers[30].
HEK293-H188-C24 cells stably expressing H188 were plated at 80% confluence on 96-well clear-bottom assay plates (Costar 3904, Corning, NY) coated with rat tail collagen (Collaborative Biomedical Products, Bedford, MA). […] Real-time kinetic assays of FRET were performed using a FlexStation 3 microplate reader equipped with monochromators (Molecular Devices, Sunnyvale, CA). Excitation light was delivered at 435/9 nm (455 nm cut-off), and emitted light was detected at 485/15 nm (CFP) or 535/15 nm (YFP)[31],[34]–[36]. […]

[5] = test system: wild-type HEK293 cells; assay: FRET cAMP assay in wild-type HEK293 cells transduced with H188 (negative control); type: cell-based, human; settings: WT HEK293 lacking recombinant receptors, H188 virus; IBMX at 50 μM
Method: as §1

[6] = test system: rat GIP receptor; assay: FRET cAMP assay in HEK293 cells stably expressing GIP receptor, transduced with H188; type: cell-based; settings: GIP 3 nM
Method: as §1

Nc1ncnc2c1ncn2[C@H]1CC[C@@H](CO)O1 [DDA]
Effect on the cAMP-elevating action of GLP-1 [1]: suppressed the action of GLP-1

CC(=O)Oc1ccc(CO)cc1 [4-Abn-OH, 4-acetoxybenzyl alcohol]
Effect on ΔFRET measured in response to forskolin [2]: not blocked

Nc1nc(Cl)cc(N(Cc2ccsc2)C2CC2)n1 [LRE1]
Effect on IBMX-induced rise of cAMP in HEK293-sAC cells [3]: blocked

CC1CCc2c(cc(Br)c(F)c2Br)N1C=O (stereo not shown) [CE3F4]
Effect on baseline FRET ratio when administered alone [2]: unaffected
Effect on ΔFRET measured in response to 8-pCPT-2′-O-Me-cAMP-AM ([2]; Epac inhibitor co-applied): reduced

CC(=O)Oc1ccc(CSP2(=O)OC[C@H]3O[C@@H](n4c(Br)nc5c(N)ncnc54)[C@H](O)[C@@H]3O2)cc1 (stereo partly shown) [Rp-8-Br-cAMPS-pAB]
Effect on baseline FRET ratio when administered alone [2]: weak partial agonist effect
Effect on ΔFRET measured in response to forskolin [2]: inhibited the ΔFRET

CC[C@H](C)[C@H](NC(=O)[C@H](Cc1ccccc1)NC(=O)[C@H](CCC(=O)O)NC(=O)[C@H](CCCCN)NC(=O)[C@H](C)NC(=O)[C@H](C)NC(=O)[C@H](CCC(N)=O)NC(=O)CNC(=O)[C@H](CCC(=O)O)NC(=O)[C@H](CC(C)C)NC(=O)[C@H](Cc1ccc(O)cc1)NC(=O)[C@H](CO)NC(=O)[C@H](CO)NC(=O)[C@@H](NC(=O)[C@H](CC(=O)O)NC(=O)[C@H](CO)NC(=O)[C@@H](NC(=O)[C@H](Cc1ccccc1)NC(=O)[C@@H](NC(=O)CNC(=O)[C@H](CCC(=O)O)NC(=O)[C@H](C)NC(=O)[C@@H](N)Cc1c[nH]cn1)[C@@H](C)O)[C@@H](C)O)C(C)C)C(=O)N[C@@H](C)C(=O)N[C@@H](Cc1c[nH]c2ccccc12)C(=O)N[C@@H](CC(C)C)C(=O)N[C@H](C(=O)N[C@@H](CCCCN)C(=O)NCC(=O)N[C@@H](CCCNC(=N)N)C(N)=O)C(C)C [GLP-1, glucagon-like peptide-1]
Effect on levels of cAMP in empty vector cells [4]: without effect
Effect on levels of cAMP in wild-type HEK293 cells [5]: no such effect

gastric inhibitory polypeptide (YAEGTFISDYSIAMDKIHQQDFVNWLLAQKGKKNDWKHNITQ) [GIP, hormone]
Effect on cAMP at GIP receptor, 3 nM [6]: did raise levels of cAMP
